Assay results: ChEMBL document CHEMBL4330117, “Synthesis, biological evaluation and molecular docking of benzimidazole grafted benzsulfamide-containing pyrazole ring derivatives as novel tubulin polymerization inhibitors” (Bioorg Med Chem, 2019)
Active and inactive are the calls of the source. The rule behind the calls is not given here.

Key:
A549 = test: Antiproliferative activity against human A549 cells after 24 hrs by MTT assay; type: functional, cell-based; settings: A549, 24 h
HeLa = test: Antiproliferative activity against human HeLa cells after 24 hrs by MTT assay; type: functional, cell-based
Tubulin (Bos taurus) [1] = molecular target: T1, Tubulin (Bos taurus) (UniProt Q6B856+Q862L2+Q862F3); test: Inhibition of vinblastine binding to bovine brain tubulin at 5 uM
MCF7 = test: Antiproliferative activity against human MCF7 cells after 24 hrs by MTT assay; type: functional, cell-based; settings: MCF7, 24 h
[2] = Cytotoxicity against HEK293T cells after 24 hrs by MTT assay; type: cell-based, HEK-293T; settings: human
HepG2 = test: Antiproliferative activity against human HepG2 cells after 24 hrs by MTT assay; type: functional, cell-based; settings: HepG2, 24 h
[3] = Cytotoxicity against mouse primary hepatocytes after 24 hrs by MTT assay; type: cell-based, Hepatocyte
Tubulin (Bos taurus) [4] = molecular target: T1, Tubulin (Bos taurus); test: Inhibition of [3H]colchicine binding to bovine brain tubulin at 5 uM
[5] = Toxicity in mouse xenografted with rat H22 cells assessed as weight loss at 3 mg/kg, ip measured after 28 days; type: organism-based; settings: in vivo, 672 h
Rattus norvegicus = test: Antitumor activity against rat hepatoma H22 cells implanted in mouse assessed as reduction in tumor volume at 3 mg/kg, ip measured after 8 to 28 days; type: functional, organism-based

| Compound | IC50 (A549) | IC50 (HeLa) | inhibition (Tubulin (Bos taurus) [1]) | IC50 (MCF7) | CC50 at 24 h [2] | IC50 (HepG2) | CC50 at 24 h [3] | inhibition (Tubulin (Bos taurus) [4]) | Activity [5] | Activity (Rattus norvegicus) |
| --- | --- | --- | --- | --- | --- | --- | --- | --- | --- | --- |
| COc1ccc(S(=O)(=O)n2c(-c3cn(-c4ccccc4)nc3-c3ccc(F)cc3)nc3ccccc32)cc1 | 0.35 µM | 0.39 µM | 2.98% | 0.53 µM | 37.3 µM | 0.47 µM | 105 µM | 77% | – | – |
| Cc1ccc(-c2nn(-c3ccccc3)cc2-c2nc3ccccc3n2S(=O)(=O)c2ccccc2)cc1 | 0.76 µM | 0.82 µM | 0.21% | 0.83 µM | 138 µM | 0.96 µM | 189 µM | 74% | – | – |
| COc1ccc(/C=C\c2cc(OC)c(OC)c(OC)c2)cc1O [COMBRETASTATIN A4] | 0.16 µM | 0.24 µM | – | 0.18 µM | 162 µM | 0.33 µM | 178 µM | – | Toxic | Active |
| O=S(=O)(c1ccccc1)n1c(-c2cn(-c3ccccc3)nc2-c2ccc(C(F)(F)F)cc2)nc2ccccc21 | 0.48 µM | 0.56 µM | 0.52% | 0.63 µM | 128 µM | 0.59 µM | 186 µM | 61% | – | – |
| Cc1ccc(C)c(S(=O)(=O)n2c(-c3cn(-c4ccccc4)nc3-c3ccc(F)cc3)nc3ccccc32)c1 | 0.2 µM | 0.32 µM | 0.62% | 0.43 µM | 54.2 µM | 0.41 µM | 122 µM | 88% | – | – |
| Cc1ccc(-c2nn(-c3ccccc3)cc2-c2nc3ccccc3n2S(=O)(=O)c2ccc(F)cc2)cc1 | 3.24 µM | 3.67 µM | 0.07% | 5.27 µM | 128 µM | 5.06 µM | 167 µM | 53% | – | – |
| O=S(=O)(c1ccc(C(F)(F)F)cc1)n1c(-c2cn(-c3ccccc3)nc2-c2ccc(F)cc2)nc2ccccc21 | 1.28 µM | 1.43 µM | 0.51% | 1.58 µM | 241 µM | 1.68 µM | 55.3 µM | 50% | – | – |
| Cc1ccc(-c2nn(-c3ccccc3)cc2-c2nc3ccccc3n2S(=O)(=O)c2ccc(Br)cc2)cc1 | 1.86 µM | 2.34 µM | -0.38 to 1.4% | 3.16 µM | 159 µM | 3.04 µM | > 300 µM | 48% | – | – |
| Cc1ccc(-c2nn(-c3ccccc3)cc2-c2nc3ccccc3n2S(=O)(=O)c2ccc(Cl)cc2)cc1 | 3.55 µM | 4.06 µM | 0.24% | 5.93 µM | 167 µM | 5.52 µM | 216 µM | 38% | – | – |
| O=S(=O)(c1ccc(Br)cc1)n1c(-c2cn(-c3ccccc3)nc2-c2ccc(F)cc2)nc2ccccc21 | 1.72 µM | 2.04 µM | 3.02% | 2.63 µM | 239 µM | 2.55 µM | > 300 µM | 51% | – | – |
| O=S(=O)(c1ccc(C(F)(F)F)cc1)n1c(-c2cn(-c3ccccc3)nc2-c2ccc(C(F)(F)F)cc2)nc2ccccc21 | 0.86 µM | 0.97 µM | 0.05% | 1.24 µM | 63.2 µM | 1.12 µM | 137 µM | 54% | – | – |
| COc1ccc(S(=O)(=O)n2c(-c3cn(-c4ccccc4)nc3-c3ccc(C(F)(F)F)cc3)nc3ccccc32)cc1 | 0.17 µM | 0.25 µM | 0.03% | 0.42 µM | > 300 µM | 0.37 µM | 87.4 µM | 85% | – | – |
| O=S(=O)(c1ccc(Br)cc1)n1c(-c2cn(-c3ccccc3)nc2-c2ccc(C(F)(F)F)cc2)nc2ccccc21 | 1.69 µM | 1.86 µM | -0.07 to 2.1% | 2.47 µM | 185 µM | 2.16 µM | 167 µM | 52% | – | – |
| O=S(=O)(c1ccc(Cl)cc1)n1c(-c2cn(-c3ccccc3)nc2-c2ccc(C(F)(F)F)cc2)nc2ccccc21 | 2.56 µM | 3.06 µM | 0.73% | 4.32 µM | 75.3 µM | 3.93 µM | 173 µM | 40% | – | – |
| O=S(=O)(c1ccccc1)n1c(-c2cn(-c3ccccc3)nc2-c2ccc(F)cc2)nc2ccccc21 | 0.55 µM | 0.68 µM | 0.05% | 0.69 µM | 96.3 µM | 0.72 µM | 231 µM | 62% | – | – |
| Cc1ccc(-c2nn(-c3ccccc3)cc2-c2nc3ccccc3[nH]2)cc1 | 4.01 µM | 4.95 µM | 0.05% | 7.26 µM | 187 µM | 6.26 µM | > 300 µM | 40% | – | – |
| Cc1ccc(-c2nn(-c3ccccc3)cc2-c2nc3ccccc3n2S(=O)(=O)c2ccc(C)cc2)cc1 | 0.46 µM | 0.48 µM | 0.18% | 0.57 µM | 79.3 µM | 0.52 µM | 102 µM | 66% | – | – |
| COc1cc2c(c(OC)c1OC)-c1ccc(OC)c(=O)cc1[C@@H](NC(C)=O)CC2 [COLCHICINE] | 0.22 µM | 0.36 µM | – | 0.44 µM | 129 µM | 0.42 µM | 153 µM | – | – | – |
| O=[N+]([O-])c1ccc(S(=O)(=O)n2c(-c3cn(-c4ccccc4)nc3-c3ccc(F)cc3)nc3ccccc32)cc1 | 1.03 µM | 1.17 µM | -0.04 to 0.3% | 1.37 µM | 189 µM | 1.34 µM | > 300 µM | 51% | – | – |
| Cc1ccc(-c2nn(-c3ccccc3)cc2-c2nc3ccccc3n2S(=O)(=O)c2ccc(C(F)(F)F)cc2)cc1 | 1.46 µM | 1.52 µM | 0.21% | 2.34 µM | 182 µM | 1.93 µM | 89.3 µM | 55% | – | – |
| Cc1ccc(-c2nn(-c3ccccc3)cc2-c2nc3ccccc3n2S(=O)(=O)c2cc(C)ccc2C)cc1 | 0.27 µM | 0.37 µM | 0.07% | 0.51 µM | 82.2 µM | 0.46 µM | 231 µM | 82% | – | – |
| O=S(=O)(c1ccc(F)cc1)n1c(-c2cn(-c3ccccc3)nc2-c2ccc(F)cc2)nc2ccccc21 | 2.37 µM | 2.44 µM | 1.32% | 3.67 µM | 218 µM | 3.52 µM | 174 µM | 48% | – | – |
| O=S(=O)(c1ccc(Cl)cc1)n1c(-c2cn(-c3ccccc3)nc2-c2ccc(F)cc2)nc2ccccc21 | 3.17 µM | 3.45 µM | -2.09 to 2.7% | 4.96 µM | 93.1 µM | 4.23 µM | 231 µM | 48% | – | – |
| O=S(=O)(c1ccc(F)cc1)n1c(-c2cn(-c3ccccc3)nc2-c2ccc(C(F)(F)F)cc2)nc2ccccc21 | 1.74 µM | 2.19 µM | 0.65% | 3.12 µM | 157 µM | 2.73 µM | 83.3 µM | 54% | – | – |
| FC(F)(F)c1ccc(-c2nn(-c3ccccc3)cc2-c2nc3ccccc3[nH]2)cc1 | 3.62 µM | 4.67 µM | -0.03 to 2.1% | 6.33 µM | 167 µM | 6.03 µM | 159 µM | 44% | – | – |
| O=[N+]([O-])c1ccc(S(=O)(=O)n2c(-c3cn(-c4ccccc4)nc3-c3ccc(C(F)(F)F)cc3)nc3ccccc32)cc1 | 0.79 µM | 0.95 µM | 0.14% | 1.13 µM | 163 µM | 1.07 µM | 178 µM | 63% | – | – |
